{
  "source": "patent US7285558B2",
  "about": "“Pyrazolo[3,4-d]pyrimidines inhibiting H. pylori infections” (AstraZeneca AB, priority 2001, dated 2007)",
  "key": {"H. pylori MurI": {"target": "T1, H. pylori MurI (Helicobacter pylori, UniProt Q9ZLT0)", "T1 sequence (Q9ZLT0 1-255)": "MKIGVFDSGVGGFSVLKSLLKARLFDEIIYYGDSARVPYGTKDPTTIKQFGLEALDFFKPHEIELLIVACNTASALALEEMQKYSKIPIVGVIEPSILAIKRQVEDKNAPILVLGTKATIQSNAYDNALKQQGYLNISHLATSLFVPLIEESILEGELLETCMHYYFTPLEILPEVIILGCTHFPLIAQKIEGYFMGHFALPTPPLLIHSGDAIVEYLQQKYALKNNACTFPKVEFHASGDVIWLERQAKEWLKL", "assay": "Glutamate racemase (MurI) activity assay, coupled to L-glutamate dehydrogenase (LGDH), fluorescence readout", "type": "biochemical", "conditions": "1000 nM H. pylori MurI, 40 μM D-glutamate, room temperature, read-out: LGDH I50", "protocol": "Glutamate Racemase Activity Assay:\nGlutamate racemase (MurI) activity was assayed by measuring the conversion of glutamate from D to L enantiomer. This reaction was coupled to the reduction of NAD^+ to NADH by L-glutamate dehydrogenase (LGDH). LGDH from bovine liver was obtained as a lyophilized powder (Sigma #G-7882) and dissolved in 10 mM Tris (Sigma #T-6791), pH 7.5, buffer containing 0.1 mM EDTA (Fisher #BP118-500) and 50% glycerol (Sigma #G-9012). The assay mixture consisted of 100 mM Tris-HCl, pH 8.0, 10 mM β-NAD (Sigma #N-7004), 5 mM DTT (Sigma #D-5545), 0.03% PEG (mw 8000, Sigma #P-5413), 0.03 mg/mL BSA (Pierce #23210), 15 U/mL LGDH, D-glutamate (Fluka #49460), and purified MurI. The following MurI concentrations were used: 1000 nM H. pylori MurI, 0.7 nM E. faecalis MurI, or 0.4 nM E. coli MurI. In the case of E. coli MurI 14 μM UDP-MurNAc-Ala was also added. The final concentration of D-glutamate added for H. pylori MurI was 40 μM, and the other orthologs used 1 mM D-glutamate. The assay was performed in 96-well black microtiter plates (Greiner #XN2-9511) with a final assay volume of 100 μL. Compounds were prepared (x) […]\n[…] as 20 mM stock solutions in dimethyl sulphoxide (DMSO, Sigma #D-5879) and serial dilutions were prepared from these solutions using DMSO, 2 μL of which were added to the wells. Activity at room temperature was measured by monitoring the increase in fluorescence using a TECAN Ultra platereader with 340 nm excitation and 465 nm emission filters. The compounds provided have measured IC50 of less then 400 μM"}},
  "note": "Where a name gives a salt, the structure may show the parent alone.",
  "data": [
    {"compound": "Cn1c(=O)c2c(-c3ccncc3)n(Cc3cccc4ccccc34)nc2n(CS(=O)(=O)C(F)(F)F)c1=O", "note": "[Example 126, 5-methyl-2-(1-naphthylmethyl)-3-(4-pyridinyl)-7-{[(trifluoromethyl)sulfonyl]methyl}-2H-pyrazolo[3,4-d]pyrimidine-4,6(5H,7H)-dione]", "values": [
      {"measurement": "IC50", "setting": "H. pylori MurI", "value": 18, "unit": "µM"}
    ]},
    {"compound": "CC(C)Cn1c(=O)n(C)c(=O)c2c(-c3ccccc3F)n(Cc3csc4ccccc34)nc21", "note": "[Example 131, 2-(1-benzothiophen-3-ylmethyl)-3-(2-fluorophenyl)-7-isobutyl-5-methyl-2H-pyrazolo[3,4-d]pyrimidine-4,6(5H,7H)-dione]", "values": [
      {"measurement": "melting point", "value": "55 to 57", "unit": "°C"}
    ]},
    {"compound": "Cn1c(=O)c2c(-c3ccncc3)n(Cc3cccc4ccccc34)nc2n(C[S+](C)[O-])c1=O", "note": "(racemic) [Example 127, (±)5-methyl-7-[(methylsulfinyl)methyl]-2-(1-naphthylmethyl)-3-pyridin-4-yl-2H-pyrazolo[3,4-d]pyrimidine-4,6(5H,7H)-dione]", "values": [
      {"measurement": "IC50", "setting": "H. pylori MurI", "value": 26, "unit": "µM"},
      {"measurement": "melting point", "value": "107 to 109", "unit": "°C"}
    ]},
    {"compound": "Cn1c(=O)c2c(-c3ccncc3)n(Cc3cccc4ccccc34)nc2n(C[S+]([O-])c2ccccc2)c1=O", "note": "(stereo not shown) [Example 128, 5-methyl-2-(1-naphthylmethyl)-7-[(phenylsulfinyl)methyl]-3-pyridin-4-yl-2H-pyrazolo[3,4-d]pyrimidine-4,6(5H,7H)-dione]", "values": [
      {"measurement": "melting point", "value": "130 to 135", "unit": "°C"}
    ]},
    {"compound": "CCC(C#N)n1c(=O)n(C)c(=O)c2c(-c3ccncc3)n(Cc3cccc4ccccc34)nc21", "note": "(racemic) (as salt: trifluoroacetate) [Example 130, ±2-[5-methyl-2-(1-naphthylmethyl)-4,6-dioxo-3-(4-pyridinyl-2,4,5,6-tetrahydro-7H-pyrazolo[3,4-d]pyrimidin-7-yl]butanenitrile]", "values": [
      {"measurement": "melting point", "value": "75 to 77", "unit": "°C"}
    ]},
    {"compound": "CCC(C#N)n1c(=O)n(C)c(=O)c2c(-c3ccncc3)n(Cc3cccc4ccccc34)nc21", "note": "(racemic) [Example 130, ±2-[5-methyl-2-(1-naphthylmethyl)-4,6-dioxo-3-(4-pyridinyl-2,4,5,6-tetrahydro-7H-pyrazolo[3,4-d]pyrimidin-7-yl]butanenitrile]", "values": [
      {"measurement": "IC50", "setting": "H. pylori MurI", "value": 9.1, "unit": "µM"}
    ]},
    {"compound": "CC(C)Cn1c(=O)n(C)c(=O)c2c(-c3cccc(-c4nnn[nH]4)c3)n(Cc3cccc4ccccc34)nc21", "note": "[Example 129, 7-isobutyl-5-methyl-2-(1-naphthylmethyl)-3-[3-(1H-1,2,3,4-tetraazol-5-yl)phenyl]-2H-pyrazolo[3,4-d]pyrimidine-4,6(5H,7H)-dione]", "values": [
      {"measurement": "IC50", "setting": "H. pylori MurI", "value": 1.6, "unit": "µM"},
      {"measurement": "melting point", "value": "251 to 254", "unit": "°C"}
    ]},
    {"compound": "Cn1c(=O)c2c(-c3ccncc3)n(Cc3cccc4ccccc34)nc2n(C[S+]([O-])C(F)(F)F)c1=O", "note": "(racemic) [Example 125, (±)5-methyl-2-(1-naphthylmethyl)-3-(4-pyridinyl)-7-{[(trifluoromethyl)sulfinyl]methyl}-2H-pyrazolo[3,4-d]pyrimidine-4,6(5H,7H)-dione,7H)-dione]", "values": [
      {"measurement": "IC50", "setting": "H. pylori MurI", "value": 45.7, "unit": "µM"}
    ]}
  ]
}
